Molecular target: T1, HiC (Mycothermus thermophilus, UniProt A0A075B5G4)
T1 construct: commercial enzyme Novozym 51032 (Strem), used as supplied
T1 sequence (A0A075B5G4 1-194): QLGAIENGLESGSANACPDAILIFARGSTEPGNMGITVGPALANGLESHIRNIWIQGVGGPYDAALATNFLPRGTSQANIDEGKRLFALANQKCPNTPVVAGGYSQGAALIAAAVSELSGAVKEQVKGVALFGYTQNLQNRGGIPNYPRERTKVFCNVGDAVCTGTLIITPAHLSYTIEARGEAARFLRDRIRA
Experiment: HPLC of BHET to MHET conversion
Assay type: biochemical
Conditions: 24% acetonitrile, 76% 100 mM potassium phosphate pH 7, 40 °C, 0.1 g HiC per g BHET; product MHET

O=C(OCCO)c1ccc(C(=O)OCCO)cc1 [bis(2-hydroxyethyl) terephthalic acid]
HPLC of BHET to MHET conversion: enzymatic hydrolysis of BHET using Humicola insolens cutinase (HiC

From publication PMC11587651, “Increased cytoplasmic expression of PETase enzymes in E. coli” (Microbial Cell Factories, 2024)
